The experiment has as its target T1, ADAMTS-5 MDTCS (Homo sapiens, UniProt Q9UNA0).
T1 construct: ADAMTS-5 MDTCS (lacking the C-terminal TS motif but retaining full versicanase activity); made in house; host or cells: HEK293T
T1 sequence (Q9UNA0 262-874 limits assumed): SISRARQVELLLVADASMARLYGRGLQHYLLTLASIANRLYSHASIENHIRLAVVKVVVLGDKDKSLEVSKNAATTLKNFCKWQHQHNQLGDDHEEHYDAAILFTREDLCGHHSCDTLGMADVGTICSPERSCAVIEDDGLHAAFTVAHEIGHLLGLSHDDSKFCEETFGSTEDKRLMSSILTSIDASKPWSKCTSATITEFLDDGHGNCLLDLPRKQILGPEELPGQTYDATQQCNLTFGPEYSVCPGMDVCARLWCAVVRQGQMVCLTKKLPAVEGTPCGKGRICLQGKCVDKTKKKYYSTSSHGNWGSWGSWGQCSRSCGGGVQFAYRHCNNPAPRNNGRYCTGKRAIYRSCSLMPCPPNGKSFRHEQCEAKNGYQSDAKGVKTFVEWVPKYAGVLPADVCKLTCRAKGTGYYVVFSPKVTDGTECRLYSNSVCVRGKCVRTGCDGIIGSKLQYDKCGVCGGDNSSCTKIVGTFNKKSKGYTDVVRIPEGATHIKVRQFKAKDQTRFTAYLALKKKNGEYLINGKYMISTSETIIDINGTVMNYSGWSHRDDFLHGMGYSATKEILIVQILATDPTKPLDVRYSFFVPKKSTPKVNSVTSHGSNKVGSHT
The experiment in a line: Dual inhibition study (GM6001 with or without 4b, QF peptide cleavage). It counts as biochemical. On the procedure:
Figure 3 Compound 4b binds to the ADAMTS-5 Mp/Dis domains in the presence of GM6001. (A, B) Compound 4b inhibits versicanase activity of both full-length (FL) ADAMTS-5 and its variant containing only the Mp/Dis domains (ADAMTS-5 MD). Compound 4b (100 μM) or DMSO was incubated either with ADAMTS-5 FL (0.2 nM, A) or ADAMTS-5 MD (26 nM, B) for 2 h at 37 °C before addition of V1-5GAG (50 nM). At each time point, reactions were stopped by addition of EDTA and versikine fragments quantified by sandwich ELISA as reported in the Methods section. In the DMSO control, complete proteolysis was achieved after 7200 s. […]
QF peptide cleavage assays were conducted in 96-well black microtiter plates (Scientific Laboratories Supplies Ltd, Wilford, UK) using a Fluostar Omega microplate reader (BMG Labtech, Aylesbury, UK). The activity of ADAMTS-4 (1 nM) and -5 (5 nM) was monitored for 2 h using the fluorescent peptide substrates fluorescein 5(6)-carbonyl-Ala-Glu-Leu-[…]-Gly-Arg-Pro-Ile-Ser-Ile-Ala-Lys-N,N,N0,N0-tetramethyl-6-carboxyrhodamine-NH2 (FAM-AE ~ LQGRPISIAK-TAMRA, ADAMTS-4) and fluorescein 5(6)-carbonyl-Thr-Glu-Ser-Glu ~ Ser-Arg-Gly-Ala-Ile-Tyr-Lys-Lys-N,N,N0,N0-tetramethyl-6-carboxyrhodamine-NH2 (FAM-TESE ~ SRGAIYKK-TAMRA, ADAMTS-5) (custom-synthesized by Bachem, Bubendorf, Switzerland) with an excitation wavelength of 485 nm and an emission wavelength of 538 nm. […]

The values below come from publication PMC7806935, “Exosite inhibition of ADAMTS-5 by a glycoconjugated arylsulfonamide” (Scientific Reports, 2021).

SMILES strings stand for the structures.

Regarding `CNC(=O)[C@H](Cc1c[nH]c2ccccc12)NC(=O)[C@@H](CC(=O)NO)CC(C)C` [GM6001], for the setting “QF peptide, DMSO, no 4b, read-out: IC50^− (in the absence of 4b)”, the IC50 was found to be 370 ± 90 nM. In addition, where the note is “ratio with/without 10 μM 4b, < 1 synergistic”, the “IC50^+/IC50^−” value was 0.043.

What is called IC50 is the concentration that inhibits the measured activity by half.
